Read-outs that look alike come from different tables or passages of the source.
Key:
[1] = in vivo; cited from earlier work
[2] = STZ rat Study #1: animal survival and clinical observations; assay type: in vivo; conditions: Group 5: 1.5 mg/kg over 24 h by pump, N 10, STZ rats, end of study
Experimental: Male Sprague Dawley rats (Harlan Laboratories, Inc.; Indianapolis, Ind.) weighing approximately 400 g had type 1 diabetes induced on Day 1 by intravenous administration of clinical-grade STZ (Zanosar®; 50 mg/kg in Study #1 and 33 mg/kg in Study #2). On Day 3 (Study #1) or Day 4 (Study #2), blood was collected and K3EDTA plasma was analyzed for endogenous C-peptide levels and animals with C-peptide <0.4 nM were randomized on Day 7 (Study #1) or Day 9 (Study #2) taking into account body weight and blood glucose (criterion in the range 400-600 mg/dL). Randomization was done using Covance's BRAT system.
Insulin (Lantus®, long-acting insulin glargine) was used in both studies and administered subcutaneously in the evening before the start of the 12-hour dark cycle in the animal room (time period when most food consumption takes place). In Study #1, rats were initiated on insulin after there were a number of animal deaths starting early in the study (3 days into the treatment period). All animals were receiving 3 U/day of insulin by the end of the study. […] Additionally to limit dehydration when needed throughout the studies, warm sterile saline (volume determined by veterinarian) was administered to animals, and in particular in Study #2, to animals 24 hours prior to undergoing surgery for pump implantation. […]

[3] = cited from earlier work
[4] = Single-dose pharmacokinetic study of C-peptide in patients with type 1 diabetes; conditions: human, in vivo; for Vd: 0.45 mg (150 nmol) i.v., mean ± SD
Experimental: In a single-dose pharmacokinetic study of C-peptide in patients with type 1 diabetes, recombinant human C-peptide was administered subcutaneously at doses of 150 nmol, 600 nmol, 1800 nmol, and intravenously at a dose of 150 nmol with a wash-out period of at least three days.

[5] = clinical; conditions: human, in vivo
[6] = in vivo

In the case of Glargine insulin, the duration of activity [1] is given as 24 h and the “peak time of effect” value [1] is given as “no peak effect”.

In the case of “Regular insulin: short-acting insulin preparation”, the onset of action [1] is given as 30 to 60 min.

In the case of `CC(C)C[C@H](NC(=O)[C@H](C)NC(=O)[C@H](CC(C)C)NC(=O)[C@@H]1CCCN1C(=O)[C@H](CCC(N)=O)NC(=O)[C@H](CC(C)C)NC(=O)[C@H](CO)NC(=O)CNC(=O)[C@H](C)NC(=O)CNC(=O)[C@@H]1CCCN1C(=O)CNC(=O)CNC(=O)CNC(=O)[C@H](CC(C)C)NC(=O)[C@H](CCC(=O)O)NC(=O)[C@@H](NC(=O)[C@H](CCC(N)=O)NC(=O)CNC(=O)[C@@H](NC(=O)[C@H](CCC(N)=O)NC(=O)[C@H](CC(C)C)NC(=O)[C@H](CC(=O)O)NC(=O)[C@H](CCC(=O)O)NC(=O)[C@H](C)NC(=O)[C@@H](N)CCC(=O)O)C(C)C)C(C)C)C(=O)N[C@@H](CCC(=O)O)C(=O)NCC(=O)N[C@@H](CO)C(=O)N[C@@H](CC(C)C)C(=O)N[C@@H](CCC(N)=O)C(=O)O` [C-peptide], the “Number of Surviving Animals” value [2] is listed as 1, the half-life ([3]; healthy subjects, range of 24.9-45.3 minutes) is listed as 0.558 h and the half-life ([3]; subjects with type 1 diabetes, range of 39.4-48.5 minutes) is listed as 0.708 h. For the same compound, the Cmax ([4]; iv, 0.45 mg) was 30.8 ± 6.57 nM, the clearance ([4]; iv, 0.45 mg) was 250 ± 46 mL/min and the Vd ([4]; iv, 0.45 mg, Vss) was 10.9 ± 1.97 L. For the same compound, the Vd ([4]; iv, 0.45 mg, Vz) was 25.6 ± 7.65 L, the Cmax ([4]; sc, 0.45 mg) was 3.7 ± 1.04 nM and the Tmax ([4]; sc, 0.45 mg) was 0.833 h. The bioavailability ([4]; sc, 0.45 mg) was 86.9 ± 12.1%, the Cmax ([4]; sc, 1.8 mg) was 14.3 ± 3.22 nM and the Tmax ([4]; sc, 1.8 mg) was 1.08 h. The Cmax ([4]; sc, 5.4 mg) was 40.3 ± 7.03 nM, the Tmax ([4]; sc, 5.4 mg) was 1.22 h and the half-life ([5]; iv, 0.45 mg) was 1.13 h. For the same compound, the CL/F ([5]; sc, 0.45 mg) was 290 ± 67 mL/min, the Vd/F ([5]; sc, 0.45 mg) was 28.3 ± 8.96 L and the half-life ([5]; sc, 0.45 mg) was 1.13 ± 0.35 h. For the same compound, the CL/F ([5]; sc, 1.8 mg) was 270 ± 47 mL/min, the Vd/F ([5]; sc, 1.8 mg) was 23.4 ± 5.27 L and the half-life ([5]; sc, 1.8 mg) was 1.02 h. It also gave a CL/F ([5]; sc, 5.4 mg) of 250 ± 41 mL/min, a Vd/F ([5]; sc, 5.4 mg) of 24.4 ± 5.47 L and a half-life ([5]; sc, 5.4 mg) of 1.13 h. The “dose required to obtain a plasma concentration of 1-3 nM” value [6] was 10.5 mg/week and the “dose required to obtain a plasma concentration of 1-3 nM for most of the day” value [6] was 1.5 mg/day.
